Measured values as given in ChEMBL document CHEMBL5506009 (Eur J Med Chem, 2024).
pEC50, pIC50: −log10 of the molar value.

Tested on: not listed separately
Test: Inhibition of wild type influenza A virus H5N1 A/Anhui/1/2005 Neuraminidase using MUNANA as substrate
Settings: not given
With `Cc1cc([N+](=O)[O-])ccc1NC(=O)CSc1nnc(COc2ccc3ccccc3c2)o1` the pIC50 was 5.87. For `O=C(CSc1nnc(-c2ccc3ncccc3c2)o1)NCCc1ccc2c(c1)OCO2`, the pIC50 was 4.09. Compound `O=C(CSc1nnc(COc2ccc3ccccc3c2)o1)NCCc1ccc2c(c1)OCO2` has a pIC50 of 4.59. Compound `COc1ccc(CCNC(=O)CSc2nnc(-c3ccc4ncccc4c3)o2)cc1OC` has a pIC50 of 5.58. With `O=C(CSc1nnc(-c2ccc3ncccc3c2)o1)NCCc1cccc(F)c1` the pIC50 was 4.97. Compound `COc1ccc(CCNC(=O)CSc2nnc(COc3ccc4ccccc4c3)o2)cc1OC` has a pIC50 of 5.55. With `O=C(CSc1nnc(COc2ccc3ccccc3c2)o1)NCc1ccc(F)cc1` the pIC50 was 6.85. `COc1cc(NC(=O)CSc2nnc(COc3ccc4ccccc4c3)o2)cc(OC)c1OC` showed a pIC50 of 4.36. For `O=C(CSc1nnc(-c2ccc3ncccc3c2)o1)NCc1ccc(Cl)c(Cl)c1`, the pIC50 was 6.33. `O=C(CSc1nnc(-c2ccc3ncccc3c2)o1)NCc1ccc(F)cc1` gave a pIC50 of 5.76. `O=C(CSc1nnc(COc2ccc3ccccc3c2)o1)Nc1ccc(C(F)(F)F)cn1` showed a pIC50 of 4.64. Compound `O=C(CSc1nnc(COc2ccc3ccccc3c2)o1)NCCc1cccc(F)c1` has a pIC50 of 5.94. For `O=C(CSc1nnc(-c2ccc3ncccc3c2)o1)Nc1ccc(C(F)(F)F)cn1`, the pIC50 was 5.71. In the case of `COc1cccc(CCNC(=O)CSc2nnc(COc3ccc4ccccc4c3)o2)c1`, the pIC50 was 5.55. Work on `COc1cc(NC(=O)CSc2nnc(-c3ccc4ncccc4c3)o2)cc(OC)c1OC` yielded a pIC50 of 4.98. In the case of `O=C(CSc1nnc(COc2ccc3ccccc3c2)o1)NCc1ccc(Cl)c(Cl)c1`, the pIC50 was 6.07. Compound `COc1cccc(CCNC(=O)CSc2nnc(-c3ccc4ncccc4c3)o2)c1` has a pIC50 of 5.60. Compound `CCC(CC)O[C@@H]1C=C(C(=O)O)C[C@H](N)[C@H]1NC(C)=O` [OSELTAMIVIR CARBOXYLATE] has a pIC50 of 6.51.

Tested on: Influenza A virus
Test: microbe, parasite or virus in culture
Settings: H5N1
Work on `O=C(CSc1nnc(COc2ccc3ccccc3c2)o1)NCc1ccc(F)cc1` yielded a pEC50 of 5.43. In the case of `O=C(CSc1nnc(-c2ccc3ncccc3c2)o1)NCc1ccc(Cl)c(Cl)c1`, the pEC50 was 6.96. Work on `CCC(CC)O[C@@H]1C=C(C(=O)O)C[C@H](N)[C@H]1NC(C)=O` [OSELTAMIVIR CARBOXYLATE] yielded a pEC50 of 5.83.
